c1ccc(CSSCc2ccccc2)cc1
Conditions	solubility (mole fraction)
in chloroform, 284.95 K	0.102
in chloroform, 288.75 K	0.131
in chloroform, 292.75 K	0.16
in chloroform, 298.65 K	0.208
in chloroform, 302.6 K	0.246
in chloroform, 308.15 K	0.291
in ethanol, 284.7 K	0.000168
in ethanol, 289.45 K	0.000398
in ethanol, 294.45 K	0.000905
in ethanol, 299.55 K	0.0019
in ethanol, 303.25 K	0.00301
in ethanol, 308.25 K	0.00524
in ethyl acetate, 285.55 K	0.0332
in ethyl acetate, 289.95 K	0.05
in ethyl acetate, 293.65 K	0.0667
in ethyl acetate, 298.8 K	0.0963
in ethyl acetate, 303.65 K	0.131
in ethyl acetate, 308.4 K	0.164
in n-hexane, 284.25 K	0.000922
in n-hexane, 288.35 K	0.0019
in n-hexane, 294.45 K	0.00448
in n-hexane, 298.25 K	0.00739
in n-hexane, 303.65 K	0.0137
in n-hexane, 309.05 K	0.0223
in toluene, 283.45 K	0.0521
in toluene, 288.16 K	0.0769
in toluene, 292.65 K	0.103
in toluene, 299.35 K	0.162
in toluene, 303.15 K	0.198
in toluene, 308.65 K	0.248

Source: BigSolDB 2.1
